The values below come from patent US8541404B2, “Inhibitors of the human aldosterone synthase CYP11B2” (ElexoPharm GmbH, priority 2009, dated 2013).

Molecules are shown by their SMILES.

In data set [1] the target is T1, steroid 11-β-hydroxylase CYP11B1 (hCYP11B1) (Homo sapiens, UniProt P15538).
T1 construct: expressed in transfected cells; host or cells: V79 MZh11B1 (V79 Chinese hamster cells)
T1 sequence (P15538 25-503): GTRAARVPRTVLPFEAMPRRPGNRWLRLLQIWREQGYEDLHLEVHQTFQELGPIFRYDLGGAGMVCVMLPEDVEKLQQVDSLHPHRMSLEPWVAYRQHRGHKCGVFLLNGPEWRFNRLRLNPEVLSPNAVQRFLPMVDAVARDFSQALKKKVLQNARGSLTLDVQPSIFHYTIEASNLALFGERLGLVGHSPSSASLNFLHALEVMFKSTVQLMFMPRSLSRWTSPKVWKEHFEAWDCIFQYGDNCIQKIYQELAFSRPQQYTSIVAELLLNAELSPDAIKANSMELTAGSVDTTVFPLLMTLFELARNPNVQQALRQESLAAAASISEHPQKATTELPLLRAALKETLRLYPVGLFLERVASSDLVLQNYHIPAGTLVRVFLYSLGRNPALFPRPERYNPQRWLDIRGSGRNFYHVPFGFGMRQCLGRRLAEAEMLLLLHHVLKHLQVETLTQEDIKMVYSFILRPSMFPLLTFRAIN
The data set can be described thus: Inhibition test in V79 MZh11B1 cells (test system B). The data set is classed as cell-based. As to conditions: for IC50: Table 1, V79 MZh11B1 cells, read-out: IC50 V79 11B1 hCYP11B1; for % (0.5 μM) hCYP11B1: Table 2, percentage inhibition, inhibitor concentration 0.5 μM. The procedure:
(§1) Maintenance of the cells: V79 MZh11B2 and V79 MZh11B1, which recombinantly express human aldosterone synthase (CYP11B2) or steroid 11-β-hydroxylase CYP11B1) and were prepared according to Denner et al. (Denner, K. et al., Pharmacogenetics 5:89-96 (1995)), were cultured in cell culture dishes of 60 or 90 mm diameter in a CO2 incubator at 37° C. and in a water-saturated atmosphere containing 5% of CO2. Both cell lines were cultured in DMEM^+, which contained 10% of FCS and the antibiotics penicillin and streptomycin (1%) for protection from bacterial contamination. The cells were passaged every 2 to 3 days following treatment with trypsin/EDTA, since the doubling […], according to cell count, was 1 to 2 days. The cells were passaged up to 12 to 15 times in order to exclude possible cell changes. If needed, freshly thawed cells were employed.
(§2) Inhibition test: V79 MZh11B2- and V79 MZh11B1 cells (8·10^5 cells per well) were grown to confluence in 24-well cell culture plates with a 1.9 cm^2 culture area per hole (Nunc, Roskilde, Denmark). Before the test, the DMEM culture medium present was removed, and 450 μl of fresh DMEM with inhibitor were added to each hole in at least three different concentrations in order to determine the IC50 value. After preincubation (60 min, 37° C.), the reaction was started by the addition of 50 μl of DMEM containing 2.5 μl of a solution of the substrate 11-deoxycorticosterone (20 μM, containing 1.25 nCi of [4-^14C]11-deoxycorticosterone, in ethanol). The plate was then kept in the CO2 incubator at 37° C. and under 5% CO2. The V79 MZh11B1 cells were incubated for 120 min, the V79 MZh11B2 cells for 40 min. Controls not containing inhibitor were treated in the same manner. The enzyme reactions were stopped by extraction of the supernatant with 500 μl of EtOAc. The samples were centrifuged (10000×g, 2 min), and the solution was removed and evaporated. The residue was taken up in 10 μl of chloroform and analyzed by HPTLC (see below).
In the case of V79 MZh11B1, conversion was calculated analogously to equation 1, wherein: […]
(§3) The percentage inhibition which was caused by an inhibitor in the concentration employed in each case was calculated according to equation 2.
(§4) It was calculated by determining the percentage inhibition at least 3 different inhibitor concentrations, which must all lie in the linear range of the sigmoidal IC50 curve (log C/% inhibition). The calculation was carried out by linear regression. The values determined were only used if they formed a straight line at a probability r of >0.95.
(§5) The resuspended residue from example A) or B)—containing the radiolabeled steroids—was applied to an HPTLC plate (20×10 cm, silica gel 60F254) with a concentration zone (Merck, Darmstadt, Germany). The plate was developed twice using the mobile phase chloroform/methanol/water (300:20:1). Unlabeled […] and corticosterone were applied as a reference for the CYP11B1 reaction. For the CYP11B2 reaction, 11-deoxycorticosterone, corticosterone, 18-hydroxycorticosterone and aldosterone were used as a reference. The unlabeled references were detected at 260 nm. Subsequently, imaging plates (BAS MS2340, for ^14C samples, Raytest, Straubenhardt, Germany) were exposed for 48 h with the HPTLC plates. The imaging plates were scanned using the Phosphoimager system Fuji FLA 3000 (Raytest, Straubenhardt, Germany) and the steroids were quantified.

Data set [2] deals with T2, human aldosterone synthase (CYP11B2) (Homo sapiens, UniProt P19099).
T2 construct: expressed in transfected cells; host or cells: V79 MZh11B2 (V79 Chinese hamster cells)
T2 sequence (P19099 25-503): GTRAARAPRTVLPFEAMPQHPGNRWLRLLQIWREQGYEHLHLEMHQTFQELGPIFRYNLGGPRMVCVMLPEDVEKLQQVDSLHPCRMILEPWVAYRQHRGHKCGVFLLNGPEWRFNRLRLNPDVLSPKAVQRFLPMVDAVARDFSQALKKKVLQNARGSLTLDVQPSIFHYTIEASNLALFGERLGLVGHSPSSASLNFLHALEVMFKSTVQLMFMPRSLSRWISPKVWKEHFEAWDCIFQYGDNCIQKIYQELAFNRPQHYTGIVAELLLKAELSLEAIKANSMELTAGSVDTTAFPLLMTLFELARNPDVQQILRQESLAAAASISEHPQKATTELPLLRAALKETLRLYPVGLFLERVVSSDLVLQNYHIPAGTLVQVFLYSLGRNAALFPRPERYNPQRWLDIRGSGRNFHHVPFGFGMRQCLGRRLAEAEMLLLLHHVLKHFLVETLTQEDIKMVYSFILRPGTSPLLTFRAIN
Nature of the data set: Test for CYP11B2 inhibitors in V79 MZh11B2 cells (test system B). The data set is classed as cell-based. As to conditions: for IC50: Table 1, V79 MZh11B2 cells, read-out: IC50 V79 11B2 hCYP11B2; for inhibition at 0.5 µM: V79MZh11B2, Table 2, percentage inhibition, inhibitor concentration 0.5 μM, read-out: % (0.5 μM) hCYP11B2. The procedure:
B) Test for CYP11B2 Inhibitors (V79 MZh Cells):
as §1, §2
For V79 MZh11B2, the conversion followed according to equation 3: […]
as §3, §4, §5

In general, IC50 refers to the concentration that inhibits the measured activity by half. The melting point is the temperature, or range, at which the solid turns liquid. `O=C1CCc2cc(-c3cccnc3)ccc2N1` [Example 1, 6-Pyridin-3-yl-3,4-dihydro-1H-quinolin-2-one] showed a melting point of 189 °C. For the same molecule, the IC50 in data set [1] was found to be 6750 nM. Besides, the IC50 in data set [2] was 28 nM.
In the case of `COc1cncc(-c2ccc3c(c2)CCC(=O)N3C)c1` [Example 6, 6-(5-Methoxypyridin-3-yl)-1-methyl-3,4-dihydro-1H-quinolin-2-one], the melting point was 159 °C. Besides, the IC50 in data set [1] was 87 nM. Further, in data set [2], the IC50 is 0.2 nM.
The molecule `CN1C(=O)CCc2cc(-c3cncc4ccccc34)ccc21` [Example 7, 6-Isoquinolin-4-yl-1-methyl-3,4-dihydro-1H-quinolin-2-one] gave a melting point of 176 °C. For the same molecule, the “% (0.5 μM) hCYP11B1” value in data set [1] was found to be 97%.
`S=C1CCc2cc(-c3cccnc3)ccc2N1` [Example 8, 6-Pyridin-3-yl-3,4-dihydro-1H-quinoline-2-thione] returned a melting point of 267 °C. For the same molecule, the “% (0.5 μM) hCYP11B1” value in data set [1] is 49%.
`CCN1C(=O)CCc2cc(-c3cccnc3)ccc21` [Example 9, 1-Ethyl-6-pyridin-3-yl-3,4-dihydro-1H-quinolin-2-one] gave a melting point of 91 °C. For the same molecule, the half-inhibitory concentration (IC50) in data set [1] came to 5970 nM. For the same molecule, in data set [2], the IC50 was determined as 21 nM.
`O=C1CCc2cc(-c3cccnc3)cc(Cl)c2N1` [Example 12, 8-Chloro-6-pyridin-3-yl-3,4-dihydro-1H-quinolin-2-one] registered a melting point of 178 °C. Moreover, in data set [1], the IC50 stood at 1670 nM. Moreover, the IC50 in data set [2] was 3.8 nM.
Consider `O=C1CSc2cc(-c3cccnc3)ccc2N1` [Example 14, 7-Pyridin-3-yl-4H-benzo[1,4]thiazin-3-one], for which the melting point was found to be 240 °C. In data set [1], the “% (0.5 μM) hCYP11B1” value is listed as 49%.
Molecule `COc1cncc(-c2cc3c4c(c2)CCC(=O)N4CCC3)c1` [Example 19, 9-(5-Methoxypyridin-3-yl)-1,2,6,7-tetrahydro-5H-pyrido[3,2,1-ij]quinolin-3-one] registered a melting point of 150 °C. Moreover, the “% (0.5 μM) hCYP11B1” value in data set [1] was found to be 51%. Besides, the inhibition at 0.5 µM in data set [2] turned out to be 95%.
Regarding `O=C1CCc2cc(-n3ccnc3)cc3c2N1CC3` [Example 28, 8-Imidazol-1-yl-1,2,5,6-tetrahydro-pyrrolo[3,2,1-ij]quinolin-4-one], the melting point is 124 °C. The “% (0.5 μM) hCYP11B1” value in data set [1] is on record as 24%. The inhibition at 0.5 µM in data set [2] worked out at 87%.
